“Also recorded” adds a separate entry of the source. Where a name gives a salt, the structure may show the parent alone.
Legend:
C57BL/6 mice = experiment: Topical application to depilated dorsal skin: hair length, dermal thickness, anagen follicles, follicle density; assay type: in vivo, mouse; conditions: for anagen hair cycle (anagen hair follicles by morphology) / follicle density (number of follicles per mm): topical once daily for 3 weeks; for hair length distribution histogram relative to control group: day 23, topical once daily
Method: We tested compounds to determine whether their topical application could induce anagen hair cycle and follicle density. Briefly, seven-week old C57BL/6 mice were used. […] Mice were induced to enter anagen phase by being depilated in the dorsal region. Compounds ([…]) were topically applied onto the dorsal skin once daily for 3 weeks. Three mice were used for each compound group. Approximately 30 hairs from each mouse were plucked at specific days (day 16, day 19, and day 23) and the hair length was measured. Additionally, skin samples for cryosectioning were obtained from the treated dorsal region of each mouse.
All compounds were resuspended in vehicle solution (1.2 propanediol:EtOH:H20 (40:20:40)). Compound concentrations were as follows: alprostadil 40 μg/mL; kaempferol 28.6 μg/mL; pramoxine 329.8 μg/mL; MG 624 45.13 μg/mL. Also tested was Gold Bond topical anesthetic cream. Latanoprost (150 μg/mL) was used as a positive control and AKT inhibitor A443654 (100 μM) was used as a negative control.
FIG. 19 is a series of photomicrographs and graphs showing that topical application of the indicated compounds induces dermal thickness. Dorsal skin of animals topically treated with compounds described above, then isolated, cryosectioned and stained with hematoxylin and eosin. Dermal thickness was manually measured randomly through the slices. A mean of three measurements through the slice were performed and about 20-30 slices were analyzed for each mouse within each compound group.
FIG. 20 is a series of photomicrographs and graphs showing that alprostadil, kaempferol, pramoxine, or MG 624 induces anagen hair cycle and follicle density. The density is expressed as number of follicles per mm whereas the anagen hair follicles are determined by morphology.

human SKPs [1] = experiment: Dose-response curves for proliferation of human SKPs in presence of EGF and FGF2; assay type: cell-based; conditions: for proliferation of human SKPs: 100 nM, compared to cells grown in the absence of the agent
Method: The proliferative effects of MG 624 on SKPs and neuroblastoma tumor initiating cells have also been studied in detail. Dose response curves for proliferation of human SKPs and neuroblastoma tumor initiating cells in response to MG 624 were generated in the presence of EGF and FGF2. At 200 nM MG 624, SKP cell proliferation is enhanced (FIG. 5).
To characterize enhancement of proliferation brought about by the agents identified above, dose-response curves for MG624, GSK3β, pramoxine, kaempferol, and alprostadil in presence of EGF and FGF2 were generated (FIGS. 6A-6E).

[2] = tested on: xenograft neuroblastoma tumors; experiment: Tumor formation, xenograft neuroblastoma tumors in vivo; set-up: species or system human; conditions: FIG. 4C
human SKPs [3] = experiment: In vitro sphere assay, human SKPs from foreskin; assay type: cell-based; conditions: treated for seven days, Hoechst stain, compared to vehicle control
Method: (§1) FIG. 7 is a schematic illustration of the in vitro sphere assay. SKPs were isolated from mouse back, whisker and human foreskin and allowed to grow in spheres. After 2-3 passages, spheres were dissociated and 3000 cells were plated in each well of a 96-well plate. Cells were then treated in triplicate with different concentrations of drugs or only with vehicle DMSO. Drugs were applied again on day 3 and the number of spheres was analyzed on day 7.
as §1, with “SKPs” for “FIG. 7 is a schematic illustration of the in vitro sphere assay. SKPs”, “whisker,” for “whisker”, “96 well” for “96-well”, “or” for “or only”, “(DMSO) only.” for “DMSO.”, “and” for “and the”
Sphere size is […] with, and is thus a measure of, cell proliferation. SKPs were isolated from human foreskin and allowed to grow in spheres. After 2-3 passages, spheres were dissociated and 3000 cells were plated in each well of a 96 well plate. Cells were then treated in triplicate with (a) 100 nM of a single drug, (b) a combination of drugs in which each drug is present at a concentration of 100 nM, or (c) vehicle (DMSO). Drugs were applied again on day 3. To assess how well cells proliferate within the sphere, the size of spheres was analyzed on day 7. […]

Sox2-EGFP mice = experiment: Single agent topical application, hair length in shaved Sox2-EGFP mice; assay type: in vivo, mouse; conditions: for hair length distribution histogram relative to control group: day 23, classes of 200 μm; for hair length: topical daily, days 16, 19 and 23, compared to control mice
Method: Sox2-EGFP mice, 7-8 weeks old, were shaved on the dorsal back to synchronize the hair cycle, and kaempferol (Kae) or alprostadil (Alp) was topically applied daily. Control mice were treated with vehicle only. At days 16, 19, and 23, about 30-40 hairs were plucked from each mouse, and their length was measured. Three or four mice were used in each group. […] Hair length promoted by the compounds on day 23 is shown in distribution histograms relative to the control group. Hair length was binned in classes of 200 μm, and each class was expressed as a percentage of total hair population.

Row | SMILES | anagen hair cycle (anagen hair follicles by morphology) (C57BL/6 mice) | follicle density (number of follicles per mm) (C57BL/6 mice) | proliferation of human SKPs (human SKPs [1]) | SKP proliferation (human SKPs [1]; 200 nM) | tumor formation [2] | hair length distribution histogram relative to control group (C57BL/6 mice) | size of human SKP spheres (human SKPs [3]) | hair length distribution histogram relative to control group (Sox2-EGFP mice) | hair length (Sox2-EGFP mice)
1 | CCCCOc1ccc(OCCCN2CCOCC2)cc1 [Pramoxine hydrochloride, Pramoxine] | induces | induces | enhanced proliferation |  |  |  |  |  | 
2 | CC[N+](CC)(CC)CCOc1ccc(/C=C/c2ccccc2)cc1.[I-] [MG 624] | induces | induces | enhanced proliferation | enhanced; also recorded: increased |  |  |  |  | 
3 | CC[C@]1(O)C[C@@H]2CN(CCc3c([nH]c4ccccc34)[C@@](C(=O)OC)(c3cc4c(cc3OC)N(C)[C@H]3[C@@](O)(C(=O)OC)[C@H](OC(C)=O)[C@]5(CC)C=CCN6CC[C@]43[C@@H]65)C2)C1 [vinblastine] |  |  |  |  | inhibition of tumor formation |  |  |  | 
4 | O=c1c(O)c(-c2ccc(O)cc2)oc2cc(O)cc(O)c12 [Kaempferol] | induces | induces | enhanced proliferation |  |  | shift versus longer hair length | increase the size of human SKP spheres | shift to longer hair lengths | increase in hair length
5 | CCCCC[C@H](O)/C=C/[C@H]1[C@H](O)CC(=O)[C@@H]1CCCCCCC(=O)O [Alprostadil, alprostadil] | induces | induces | enhanced proliferation |  |  | shift versus longer hair length | increase the size of human SKP spheres | shift to longer hair lengths | increase in hair length

— patent US8748177B2, “Compositions for proliferation of cells and related methods” (The Hospital for Sick Children, priority 2008, dated 2014)
